What all share (format): cell-based
The test system of experiment [1] is human umbilical-vein endothelial cells (HUVEC). Put plainly: Tube Formation Assay (TFA) Test, HUVEC in collagen gel. The settings on record: 20 hours, 40% or less judged remarkable; for inhibition at 1 µg/mL / inhibition at 10 µg/mL: Homo sapiens, HUVEC, 20 h, read-out: TFA (inhibition rate, %). An outline of the steps: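 Inhibition rate (%) of tube formation is computed from tube lengths against control (+) and control (-), measured after 20 h at 37 °C in M-199 with 20% FCS, 30 ng/ml b-FGF and 0.1 μM PMA. Samples were applied to HUVEC on collagen and covered by a second collagen layer (double-layer gel).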

For experiment [2] the test system is unchanged. Description: Cell Migration Assay (CMA) Test, HUVEC (% relative to control). To be noted: 24 hours, 60% or less = remarkable inhibition; for activity at 1 µg/mL / activity at 10 µg/mL: Homo sapiens, HUVEC, read-out: CMA (% relative to control). The method, then: (§1) Furthermore, the sample liquids of compounds used in the CPA and CMA tests were prepared in the manner described below. Firstly, after weighing out each compound, a calculated amount of DMSO was added. After dissolving the compound in the DMSO, phosphate buffered physiological saline (PBS (-)) was added to bring the sample concentration to 1 mg/ml in PBS (-). The amount of DMSO used to dissolve the compounds was adjusted in advance to that the concentration of DMSO at that time was 5%. The resulting liquids were diluted 10-fold with 5% DMSO-PBS (-) solution to prepare sample solutions having a concentration of 0.1 mg/ml. In the TFA test, 320 μl of the prepared 1 mg/ml sample solutions were removed followed by addition of 680 μl of PBS (-) to prepare samples having a concentration of […]. Moreover, 100 μl of this solution was removed followed by addition of 900 μl of PBS (-) to dilute 10-fold and prepare samples having a concentration of 1 μg/ml. P [Cell Proliferation Assay (CPA) Test]
After disseminating the 7th subculture of HUVEC obtained from the first generation in the same manner as above at 4 ml/well (3.0×10^5 cells/well) in a collagen-coated 6-well plate (NUNC), the cells were cultured for 48 hours at 37° C. in the presence of 5% CO2. The cells reached nearly a completely confluent state as a result of this culturing.
A double-edged, disposable razor blade was divided into four sections, of which one of those sections was pinched between a pair of forceps. Using this piece of razor blade, the cell surface in the above confluent state was scraped off. Two areas of the cell surface were scraped off in each well.
After washing the surface of the wells from which the cells had been scraped off with medium, 4.0 ml of fresh M199 (2+) medium were added followed by addition of 40 μl or 4 μl of sample solution (1 mg/ml). The cells were cultured for 24 hours at 37° C. in the presence of 5% CO2. After discarding the culture liquid, the cells were fixed for 30 minutes with methanol. Next, after staining the cells for 4 hours with Giemsa stain, the plates were washed with tap water and air dried.
Measurement of cell migration was performed by microscopically counting the number of cells that had newly migrated within the range of a 1 mm×1 mm block. […] The total number of cells counted in blocks 1 through 5 were then totaled to determine the overall total number of cells. Four fields were counted for each well.
Evaluation was performed determining the cell migration (%) according to the following formula.
Cell migration rate=number of migrating cells to which sample was added×100/number of migrating of control (+)
Control (+) indicates the number of migrating cells in the control well containing M199 (2+).

Experiment [3] shares this test system. Description: Cell Proliferation Assay (CPA) Test, HUVEC, MTT. The settings on record: M199 (2+) medium; for IC50: Homo sapiens, read-out: CPA (IC50 μg/ml). The procedure:
as §1
100 μl of the 7th subculture obtained from first generation human umbilical-vein endothelial cells (HUVEC) were disseminated in the wells (N=3) of a 96-well plate (Iwaki, Cat. #4860-010) at a cell concentration of 5×10^4 cells/ml. M-199 medium containing +20% FCS, 10 ng/ml of b-FGF and 10 ng/ml of EGF (abbreviated as "M199 (2+)") was used for the medium.
After culturing for 24 hours at 37° C. in the presence of 5% CO2 under the above conditions, 20 μl/well of MTT solution (solution containing 5 mg/ml of PBS (-)) were added to the control well followed by accurately culturing for 4 hours at 37° C. in the presence of 5% CO2. Following completion of culturing, 100 μl/well of a stop solution (0.001 N aqueous HCl solution containing 10% SDS) were added. On the other hand, 10 μl/well of sample solutions at concentrations of 1 mg/ml and 0.1 mg/ml were added to the other wells.
After culturing for 24 hours at 37° C. in the presence of 5% CO2, the medium was replaced and 100 μl/well of M199 (2+) were added. The samples were also replaced in each well at this time.
Moreover, after additionally culturing for 48 hours at 37° C. in the presence of 5% CO2, 20 μl/well of MTT solution were added to the wells containing sample and the control well followed by accurately culturing for 4 hours at 37° C. and adding 100 μl/well of stop solution.

In brackets after ≈: the same amount, converted by molar mass.

As for `CNC(=O)OC1OC=C(C(=O)N2CCCC2)C2CC3OC3(C)C12` [compound 25, (1S,4aS,6S,7R,7aR)-6,7-epoxy-1,4a,5,6,7,7a-hexahydro-7-methyl-1-(methylcarbamoyloxy) cyclopenta [c]-pyrane-4-carboxylic acid pyrrolidylamide], in experiment [1] (1 μg/ml), the inhibition (in general, the relative decrease from the control value, in per cent) at 1 µg/mL stood at 31.8%. In addition, the inhibition at 10 µg/mL in experiment [1] (10 μg/ml) amounted to 14.5%. In addition, the activity at 1 µg/mL in experiment [2] (1 μg/ml) is 91.8%. Moreover, the activity at 10 µg/mL in experiment [2] (10 μg/ml) was found to be 87.5%. Further, the IC50 in experiment [3] was over 100 µg/mL.

In the case of `CCNC(=O)O[C@@H]1OC=C(C(=O)OC)[C@H]2C[C@@H]3O[C@]3(C)[C@H]12` [compound 30, (1S,4aS,6S,7R,7aR)-6,7-epoxy-1-(ethylcarbamoyloxy)-1,4a,5,6,7,7a-hexahydro-7-methylcyclopenta [c] pyrane-4-carboxylic acid methylester], the inhibition at 1 µg/mL in experiment [1] (1 μg/ml) turned out to be 16.5%. In addition, the inhibition at 10 µg/mL in experiment [1] (10 μg/ml) was found to be 36%. Besides, the activity at 1 µg/mL in experiment [2] (1 μg/ml) amounted to 90%. Also, in experiment [2] (10 μg/ml), the activity at 10 µg/mL came to 105%. The IC50 in experiment [3] was over 100 µg/mL.

`CNC(=O)OC[C@@H]1[C@H](C)CC[C@@H]1C1(COC(=O)NC)CO1` (stereo partly drawn) [Compound 58, 2-[(1S,2R,3R)-2-(methylcarbamoyloxy)methyl-3-methylcyclopento-1-yl]-2,3-epoxy-propane-1-methylcarbamate]: the “TFA (inhibition rate, %)” value in experiment [1] (1 μg/ml) came to 20.6%; in experiment [1] (10 μg/ml) it was 22.3%. Also, the “CMA (% relative to control)” value in experiment [2] (1 μg/ml) turned out to be 121.6%; in experiment [2] (10 μg/ml), 97.0%. Also, the “CPA (IC50 μg/ml)” value in experiment [3] was over 100.0 µg/mL.

Turning to `CNC(=O)O[C@@H]1OC=C(C(=O)OC)[C@H]2C[C@@H]3OC3(COC)C12` (stereo in doubt) [compound 49, (1S,4aS,6S,7R,7aR)-6,7-epoxy-7-(methoxymethyl)-1-(methylcarbamoyloxy)-1,4a,5,6,7,7a-hexahydrocyclopenta [c] pyrane-4-carboxylic acid methylester], the inhibition at 1 µg/mL in experiment [1] (1 μg/ml) is 21.2%. Besides, the inhibition at 10 µg/mL in experiment [1] (10 μg/ml) is 12.8%. Besides, the activity at 1 µg/mL in experiment [2] (1 μg/ml) amounted to 102%. The activity at 10 µg/mL in experiment [2] (10 μg/ml) came out at 104%. Further, the IC50 in experiment [3] is over 100 µg/mL.

On to `C=CCOC(=O)C1=CO[C@@H](OC(=O)NC)[C@@H]2[C@@H]1C[C@@H]1O[C@]21C` [compound 9, (1S,4aS,6S,7R,7aR)-6,7-epoxy-1,4a,5,6,7,7a-hexahydro-7-methyl-1-(methylcarbamoyloxy) cyclopenta [c]-pyrane-4-carboxylic acid allylester], for which, in experiment [1] (1 μg/ml), the inhibition at 1 µg/mL was determined as 11%. Also, in experiment [1] (10 μg/ml), the inhibition at 10 µg/mL is 16.5%. The activity at 1 µg/mL in experiment [2] (1 μg/ml) is 111%. Besides, the activity at 10 µg/mL in experiment [2] (10 μg/ml) was 116%. The IC50 in experiment [3] is over 100 µg/mL.

Take `CNC(=O)OC1OC=C(C(=O)N(C)C)C2CC3OC3(C)C12` (stereo not drawn) [compound 18]: the inhibition at 1 µg/mL in experiment [1] (1 μg/ml) was determined as 28.6%. For the same compound, in experiment [1] (10 μg/ml), the inhibition at 10 µg/mL amounted to 27.7%. Further, the activity at 1 µg/mL in experiment [2] (1 μg/ml) came out at 90.3%. Besides, the activity at 10 µg/mL in experiment [2] (10 μg/ml) turned out to be 71.5%. For the same compound, the IC50 in experiment [3] was over 100 µg/mL.

Turning to `COC(=O)C1=CO[C@@H](OC(N)=O)[C@@H]2[C@@H]1C[C@@H]1O[C@]21C` [compound 29, (1S,4aS,6S,7R,7aR)-1-(carbamoyloxy)-6,7-epoxy-1,4a,5,6,7,7a-hexahydro-7-methylcyclopenta [c] pyrane-4-carboxylic acid methylester], in experiment [1] (1 μg/ml), the inhibition at 1 µg/mL came to 17.7%. In addition, the inhibition at 10 µg/mL in experiment [1] (10 μg/ml) came out at 29.3%. For the same compound, the activity at 1 µg/mL in experiment [2] (1 μg/ml) was found to be 89.9%. Further, in experiment [2] (10 μg/ml), the activity at 10 µg/mL was 88%. Also, the IC50 in experiment [3] is over 100 µg/mL.

With `COC(=O)C1=CO[C@@H](OC(=O)NC(C)C)[C@@H]2[C@@H]1C[C@@H]1O[C@]21C` [compound 34, (1S,4aS,6S,7R,7aR)-6,7-epoxy-1,4a,5,6,7,7a-hexahydro-1-(isopropylcarbamoyloxy)-7-methylcyclopenta [c] pyrane-4-carboxylic acid methylester], the inhibition at 1 µg/mL in experiment [1] (1 μg/ml) was found to be 16.8%. For the same compound, the inhibition at 10 µg/mL in experiment [1] (10 μg/ml) was -14.1%. Further, in experiment [2] (1 μg/ml), the activity at 1 µg/mL was found to be 98.2%. For the same compound, the activity at 10 µg/mL in experiment [2] (10 μg/ml) was 95.2%. Also, the IC50 in experiment [3] was over 100 µg/mL.

Consider `CNC(=O)OC1OC=C(C(=O)N2CCN(CCO)CC2)C2CC3OC3(C)C12` [compound 22, (1S,4aS,6S,7R,7aR)-6,7-epoxy-1,4a,5,6,7,7a-hexahydro-7-methyl-1-(methylcarbamoyloxy) cyclopenta [c]-pyrane-4-carboxylic acid 4-(2-hydroxyethyl) piperazylamide], for which the inhibition at 1 µg/mL in experiment [1] (1 μg/ml) amounted to 50.8%. For the same compound, the inhibition at 10 µg/mL in experiment [1] (10 μg/ml) was found to be 74.9%. Further, the activity at 1 µg/mL in experiment [2] (1 μg/ml) is 93.4%. In addition, the activity at 10 µg/mL in experiment [2] (10 μg/ml) is 97.7%. Moreover, the IC50 in experiment [3] was over 100 µg/mL.

Turning to `CCN(CC)C(=O)C1=CO[C@@H](OC(=O)NC)[C@@H]2[C@@H]1C[C@@H]1O[C@]21C` [compound 19, (1S,4aS,6S,7R,7aR)-6,7-epoxy-1,4a,5,6,7,7a-hexahydro-7-methyl-1-(methylcarbamoyloxy) cyclopenta [c]-pyrane-4-carboxylic acid diethylamide], the inhibition at 1 µg/mL in experiment [1] (1 μg/ml) came to 23.6%. Moreover, the inhibition at 10 µg/mL in experiment [1] (10 μg/ml) was found to be 21.3%. The activity at 1 µg/mL in experiment [2] (1 μg/ml) is 96.4%. Further, the activity at 10 µg/mL in experiment [2] (10 μg/ml) came out at 93.5%. Further, the IC50 in experiment [3] is over 100 µg/mL.

For the compound `COC(=O)C1=CO[C@@H](OC(=O)NC(=O)c2ccccc2)[C@@H]2[C@@H]1C[C@@H]1O[C@]21C` [compound 41, (1S,4aS,6S,7R,7aR)-1-(benzoylcarbamoyloxy)-6,7-epoxy-1,4a,5,6,7,7a-hexahydro-7-methylcyclopenta [c] pyrane-4-carboxylic acid methylester], the inhibition at 1 µg/mL in experiment [1] (1 μg/ml) was 46.7%. In experiment [1] (10 μg/ml), the inhibition at 10 µg/mL came out at 37.6%. The activity at 1 µg/mL in experiment [2] (1 μg/ml) came to 102%. The activity at 10 µg/mL in experiment [2] (10 μg/ml) came to 95%. Besides, the IC50 in experiment [3] is 56.1 µg/mL (≈ 150 µM).

Take `CNC(=O)O[C@@H]1OC=C(C(=O)OC)[C@H]2C[C@H]3O[C@@]3(C)C12` (stereo in doubt) [Compound 57, (1S,4aS,6R,7S,7aR)-6,7-epoxy-7-methyl-1-(methylcarbamoyloxy)-1,4a,5,6,7,7a-hexahydrocyclopenta [c] pyrane-4-carboxylic acid methylester]: in experiment [1] (1 μg/ml), the inhibition at 1 µg/mL is 17.7%. Further, the inhibition at 10 µg/mL in experiment [1] (10 μg/ml) came to 13.5%. In addition, in experiment [2] (1 μg/ml), the activity at 1 µg/mL came to 96%. The activity at 10 µg/mL in experiment [2] (10 μg/ml) was 93%. Further, in experiment [3], the IC50 is over 100 µg/mL.

The values are drawn from patent US6225478A, “Iridoid derivatives and neovascularization inhibitors containing the same as active ingredient” (Tsumura & Co., priority 1999, dated 2001).
